Measurements: US20170190671A1, “BIS(ARYL)CATECHOL DERIVATIVES AS HERBICIDES” (E I DU PONT DE NEMOURS AND COMPANY, priority 2014, published 2017)

Columns and labels:
Conditions in all cases: scale 0 to 100
wild oat (Avenafatua) = assay: Test D preemergence; type: in vivo, Avena fatua
Excerpt: (§1) Seeds of plant species selected from bluegrass (annual bluegrass, Poa annua), blackgrass (Alopecurus myosuroides), canarygrass (Phalaris minor), chickweed (common chickweed, Stellaria media), cutleaf geranium (Geranium dissectum), galium (catchweed bedstraw, Galium aparine), downy bromegrass (Bromus tectorum), field poppy (Papaver rhoeas), field violet (Viola arvensis), green foxtail (Setaria viridis), deadnettle (henbit deadnettle, Lamium amplexicaule), Italian ryegrass (Lolium multiflorum), kochia (Kochia scoparia), lambsquarters (Chenopodium album), oilseed rape (Brassica napus), pigweed (Amaranthus retroflexus), chamomile (scentless chamomile, Matricaria inodora), Russian thistle (Salsola kali), speedwell (bird's-eye speedwell, Veronica persica), spring barley (Hordeum vulgare), spring wheat (Triticum aestivum), wild buckwheat (Polygonum convolvulus), wild mustard (Sinapis arvensis), wild oat (Avenafatua), wild radish (Raphanus raphanistrum), windgrass (Apera spica-venti), winter barley (Hordeum vulgare), and winter wheat (Triticum aestivum) were planted into a silt loam soil and treated preemergence with test chemicals formulated in a non-phytotoxic solvent mixture which included a surfactant.
(§2) At the same time, these species were planted in pots containing Redi-Earth® planting medium (Scotts Company, 14111 Scottslawn Road, Marysville, Ohio 43041) comprising spaghnum peat moss, vermiculite, wetting agent and starter nutrients and treated with postemergence applications of the test chemicals formulated in the same manner. Plants ranged in height from 2 to 18 cm (1- to 4-leaf stage). Treated plants and controls were maintained in a controlled growth environment for 14 to 21 days after which time all species were compared to controls and visually evaluated. Plant response ratings, summarized in Table D, are based on a scale of 0 to 100 where 0 is no effect and 100 is complete control. A dash (-) response means no test result.

[1] = system: Russian thistle (Salsola kali); assay: Test D postemergence; type: in vivo
Excerpt: as §1, §2

[2] = system: chamomile (scentless chamomile, Matricaria inodora); assay: Test D postemergence; type: in vivo
Excerpt: as §1, §2

[3] = system: cutleaf geranium (Geranium dissectum); assay: Test D postemergence; type: in vivo
Excerpt: as §1, §2

[4] = system: field poppy (Papaver rhoeas); assay: Test D postemergence; type: in vivo
Excerpt: as §1, §2

kochia (Kochia scoparia) = assay: Test D postemergence; type: in vivo
Excerpt: as §1, §2

[5] = system: oilseed rape (Brassica napus); assay: Test D postemergence; type: in vivo
Excerpt: as §1, §2

[6] = system: speedwell (bird's-eye speedwell, Veronica persica); assay: Test D postemergence; type: in vivo
Excerpt: as §1, §2

[7] = system: spring barley (Hordeum vulgare); assay: Test D postemergence; type: in vivo
Excerpt: as §1, §2

[8] = system: wild mustard (Sinapis arvensis); assay: Test D postemergence; type: in vivo
Excerpt: as §1, §2

[9] = system: wild radish (Raphanus raphanistrum); assay: Test D postemergence; type: in vivo
Excerpt: as §1, §2

[10] = system: winter wheat (Triticum aestivum); assay: Test D postemergence; type: in vivo
Excerpt: as §1, §2

[11] = system: johnsongrass (Sorghum halepense); assay: Test E preemergence; type: in vivo
Summary of the method: (§3)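 Preemergence: seeds in silt loam treated with compound in non-phytotoxic solvent with surfactant. Postemergence: plants at 1- to 4-leaf stage (2–18 cm) in peat-based medium sprayed likewise. Greenhouse 14–21 days, then visual rating vs controls, 0 (no effect) to 100 (complete control).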

[12] = system: wild poinsettia (Euphorbia heterophylla); assay: Test E preemergence; type: in vivo
Summary of the method: as §3

## Fc1cnc(Oc2c(Br)cccc2Oc2ncc(Cl)cn2)nc1 [Compound 22]
Wild oat (Avenafatua); 16 g ai/ha
  Plant response rating, Oat, Wild: 5
Wild oat (Avenafatua); 31 g ai/ha
  Plant response rating, Oat, Wild: 10
Wild oat (Avenafatua); 62 g ai/ha
  Plant response rating, Oat, Wild: 20
Wild oat (Avenafatua); 125 g ai/ha
  Plant response rating, Oat, Wild: 25
[1]; 16 g ai/ha
  Plant response rating, Russian Thistle: 0
[1]; 31 g ai/ha
  Plant response rating, Russian Thistle: 5
[1]; 62 g ai/ha
  Plant response rating, Russian Thistle: 10
[1]; 125 g ai/ha
  Plant response rating, Russian Thistle: 15
[2]; 16 g ai/ha
  Plant response rating, Chamomile: 0
[2]; 31 g ai/ha
  Plant response rating, Chamomile: 0
[2]; 62 g ai/ha
  Plant response rating, Chamomile: 0
[2]; 125 g ai/ha
  Plant response rating, Chamomile: 5
[3]; 16 g ai/ha
  Plant response rating, Geranium, Cutleaf: 45
[3]; 31 g ai/ha
  Plant response rating, Geranium, Cutleaf: 55
[3]; 62 g ai/ha
  Plant response rating, Geranium, Cutleaf: 55
[3]; 125 g ai/ha
  Plant response rating, Geranium, Cutleaf: 60
[4]; 16 g ai/ha
  Plant response rating, Field Poppy: 55
[4]; 31 g ai/ha
  Plant response rating, Field Poppy: 65
[4]; 62 g ai/ha
  Plant response rating, Field Poppy: 70
[4]; 125 g ai/ha
  Plant response rating, Field Poppy: 70
Kochia (Kochia scoparia); 16 g ai/ha
  Plant response rating, Kochia: 40
Kochia (Kochia scoparia); 31 g ai/ha
  Plant response rating, Kochia: 45
Kochia (Kochia scoparia); 62 g ai/ha
  Plant response rating, Kochia: 60
Kochia (Kochia scoparia); 125 g ai/ha
  Plant response rating, Kochia: 70
[5]; 16 g ai/ha
  Plant response rating, Oilseed Rape: 15
[5]; 31 g ai/ha
  Plant response rating, Oilseed Rape: 45
[5]; 62 g ai/ha
  Plant response rating, Oilseed Rape: 70
[5]; 125 g ai/ha
  Plant response rating, Oilseed Rape: 80
[6]; 16 g ai/ha
  Plant response rating, Speedwell: 30
[6]; 31 g ai/ha
  Plant response rating, Speedwell: 40
[6]; 62 g ai/ha
  Plant response rating, Speedwell: 75
[6]; 125 g ai/ha
  Plant response rating, Speedwell: 90
[7]; 16 g ai/ha
  Plant response rating, Barley, Spring: 5
[7]; 31 g ai/ha
  Plant response rating, Barley, Spring: 10
[7]; 62 g ai/ha
  Plant response rating, Barley, Spring: 15
[7]; 125 g ai/ha
  Plant response rating, Barley, Spring: 20
[8]; 16 g ai/ha
  Plant response rating, Mustard, Wild: 35
[8]; 31 g ai/ha
  Plant response rating, Mustard, Wild: 40
[8]; 62 g ai/ha
  Plant response rating, Mustard, Wild: 55
[8]; 125 g ai/ha
  Plant response rating, Mustard, Wild: 75
[9]; 16 g ai/ha
  Plant response rating, Radish, Wild: 25
[9]; 31 g ai/ha
  Plant response rating, Radish, Wild: 35
[9]; 62 g ai/ha
  Plant response rating, Radish, Wild: 90
[9]; 125 g ai/ha
  Plant response rating, Radish, Wild: 90
[10]; 16 g ai/ha
  Plant response rating, Wheat, Winter: 0
[10]; 31 g ai/ha
  Plant response rating, Wheat, Winter: 5
[10]; 62 g ai/ha
  Plant response rating, Wheat, Winter: 5
[10]; 125 g ai/ha
  Plant response rating, Wheat, Winter: 10

## Fc1cnc(Oc2c(F)cccc2Oc2ncc(Cl)cn2)nc1 [Compound 23]
Wild oat (Avenafatua); 16 g ai/ha
  Plant response rating, Oat, Wild: 5
Wild oat (Avenafatua); 31 g ai/ha
  Plant response rating, Oat, Wild: 15
Wild oat (Avenafatua); 62 g ai/ha
  Plant response rating, Oat, Wild: 70
Wild oat (Avenafatua); 125 g ai/ha
  Plant response rating, Oat, Wild: 98
[1]; 16 g ai/ha
  Plant response rating, Russian Thistle: 0
[1]; 31 g ai/ha
  Plant response rating, Russian Thistle: 5
[1]; 62 g ai/ha
  Plant response rating, Russian Thistle: 10
[1]; 125 g ai/ha
  Plant response rating, Russian Thistle: 15
[2]; 16 g ai/ha
  Plant response rating, Chamomile: 0
[2]; 31 g ai/ha
  Plant response rating, Chamomile: 0
[2]; 62 g ai/ha
  Plant response rating, Chamomile: 0
[2]; 125 g ai/ha
  Plant response rating, Chamomile: 5
[3]; 16 g ai/ha
  Plant response rating, Geranium, Cutleaf: 25
[3]; 31 g ai/ha
  Plant response rating, Geranium, Cutleaf: 45
[3]; 62 g ai/ha
  Plant response rating, Geranium, Cutleaf: 45
[3]; 125 g ai/ha
  Plant response rating, Geranium, Cutleaf: 65
[4]; 16 g ai/ha
  Plant response rating, Field Poppy: 50
[4]; 31 g ai/ha
  Plant response rating, Field Poppy: 70
[4]; 62 g ai/ha
  Plant response rating, Field Poppy: 75
[4]; 125 g ai/ha
  Plant response rating, Field Poppy: 80
Kochia (Kochia scoparia); 16 g ai/ha
  Plant response rating, Kochia: 15
Kochia (Kochia scoparia); 31 g ai/ha
  Plant response rating, Kochia: 20
Kochia (Kochia scoparia); 62 g ai/ha
  Plant response rating, Kochia: 30
Kochia (Kochia scoparia); 125 g ai/ha
  Plant response rating, Kochia: 50
[5]; 16 g ai/ha
  Plant response rating, Oilseed Rape: 30
[5]; 31 g ai/ha
  Plant response rating, Oilseed Rape: 65
[5]; 62 g ai/ha
  Plant response rating, Oilseed Rape: 75
[5]; 125 g ai/ha
  Plant response rating, Oilseed Rape: 95
[6]; 16 g ai/ha
  Plant response rating, Speedwell: 40
[6]; 31 g ai/ha
  Plant response rating, Speedwell: 75
[6]; 62 g ai/ha
  Plant response rating, Speedwell: 100
[6]; 125 g ai/ha
  Plant response rating, Speedwell: 100
[7]; 16 g ai/ha
  Plant response rating, Barley, Spring: 0
[7]; 31 g ai/ha
  Plant response rating, Barley, Spring: 5
[7]; 62 g ai/ha
  Plant response rating, Barley, Spring: 5
[7]; 125 g ai/ha
  Plant response rating, Barley, Spring: 10
[8]; 16 g ai/ha
  Plant response rating, Mustard, Wild: 25
[8]; 31 g ai/ha
  Plant response rating, Mustard, Wild: 35
[8]; 62 g ai/ha
  Plant response rating, Mustard, Wild: 65
[8]; 125 g ai/ha
  Plant response rating, Mustard, Wild: 95
[9]; 16 g ai/ha
  Plant response rating, Radish, Wild: 25
[9]; 31 g ai/ha
  Plant response rating, Radish, Wild: 80
[9]; 62 g ai/ha
  Plant response rating, Radish, Wild: 80
[9]; 125 g ai/ha
  Plant response rating, Radish, Wild: 85
[10]; 16 g ai/ha
  Plant response rating, Wheat, Winter: 0
[10]; 31 g ai/ha
  Plant response rating, Wheat, Winter: 0
[10]; 62 g ai/ha
  Plant response rating, Wheat, Winter: 0
[10]; 125 g ai/ha
  Plant response rating, Wheat, Winter: 0

## Fc1cccc(Oc2ncc(Cl)cn2)c1Oc1ncc(C(F)(F)F)cn1 [Compound 43, 5-chloro-2-[5-fluoro-6-[[5-(trifluoromethyl)-2-pyrimidinyl]oxy]phenoxy]pyrimidine]
[11]; 31 g ai/ha
  Plant response rating, Johnsongrass: 90
[11]; 125 g ai/ha
  Plant response rating, Johnsongrass: 100
[12]; 31 g ai/ha
  Plant response rating, Poinsettia, Wild: 65
[12]; 125 g ai/ha
  Plant response rating, Poinsettia, Wild: 100
